Columns and labels:
urinary incontinence = conditions: preliminary clinical trial; Nurse et al, British Journal of Urology (1991); cited from earlier work
[1] = test system: guinea pig detrusor strips; assay: in vitro relaxation of guinea pig bladder detrusor strips contracted with 15 mM KCl (first test); type: cell-based, albino Hartley guinea pigs; conditions: for IC50: Cavia porcellus, 15 mM KCl; for potency: in vitro, in words only
Text: The actions of compounds of formula I as smooth muscle relaxants useful as therapeutic agents for the treatment of urinary incontinence through their action to open potassium channels and hyperpolarize the membrane potential in the bladder detrusor smooth muscle can be shown using suitably designed in vitro tests, such as the one described following. […] "IC50" is a well understood term and means the concentration of test compound which causes a 50% decrease in the in vitro contraction of the bladder tissue described in the following test.
Hale albino Hartley guinea pigs (450-500g) are sacrificed by carbon dioxide induced asphyxiation and quickly exsanguinated. The lower abdominal cavity is opened and the urinary bladder isolated. The bladder is cleaned of surrounding connective and adipose tissue, and the portion above the ureteral orifices is removed and washed in Krebs-Henseleit buffer solution of the following composition (in mH): NaCl 118.0, KCl 4.7, […] 1.2, KH2PO4 1.2, CaCl2 2.5, NaHCO3 25.0 and d-glucose 11.1. The solution is warmed to 37°C and gassed with 95% O2 and 5% CO2. With vigorous bubbling, the solution should have a pH value close to 7.4.
The dome of the washed bladder is cut off and discarded; the remaining bladder is placed on a gauze in a Petri dish containing the buffer solution. A mid-ventral longitudinal cut is made with scissors to open the bladder. The strips cut from the dome and the base edge are discarded. The remaining detrusor mid-section is cut into two horizontal strips with an approximate width of 2.0 mm. These two strips are further bisected at the mid-dorsal section, creating four strip of similar dimensions. Each strip thus contains both dorsal and ventral portions of the bladder.
The two ends of each individual strip are tied to a glass support rod and a force-displacement transducer (Grass model FR03), respectively, with 4-0 black braided silk suture.
The transducers are connected to a polygraph (Grass model 7E), which is calibrated at 5 mV/cm and the calibration checked for linearity with weights of 5 and 0.5 grams. The analog electrical output signals from the polygraph are digitized by a Modular Instrument Hicro 5000 signal processing system using Biowindow Data Acquisition Software, which is run under the Hicrosoft OS/2 operating system with an IBM-compatible PC.
The detrusor strips on the glass rod are secured in 20 ml tissue baths and allowed to equilibrate under a preload tension of 2 grams. […]
When the tissue relaxes to a steady state after the final washing, 15 mH KCl is again applied. […] The effect of the compound at each dose is expressed as % of the maximum inhibitory response, which is further normalized with respect to the corresponding effect of the compound vehicle control. […]

[2] = test system: guinea pig detrusor strips; assay: second in vitro test: guinea pig detrusor strips contracted with 80 mM KCl; type: cell-based; conditions: for potency in the second test (80 mM KCl) compared with the first test (15 mM KCl): guinea pig detrusor strips
Procedure: This second in vitro test is similar to the one described above with regard to tissue preparation and data acquisition. However, the following exceptions are noted. In this second test, the contraction of the detrusor strips during priming and after the equilibration period is achieved with 80 mM instead of 15 mM KCl (total concentration in the bath).
Typical calcium channel blockers like nifedipine, nimodipine, isradipine, and verapamil are able to relax and reduce the myogenic activity of guinea pig detrusor strips in both tests by virtue of their blocking action on calcium channels.

bladder = assay: in vivo oral test in catheterized rats: bladder contraction interval, blood pressure, heart rate; design: species or system Male Wistar rats; conditions: dosed orally at 3 mg/kg body weight
Procedure: The compound described in Example 1 is active and selective in this test when dosed orally at 3 mg/kg body weight.
Male Wistar rats (400 - 500 g) were anesthetized with 50 mg/kg Nembutal, i.p. For each rat, the abdominal region and the front and back of the neck were shaved and povidone-iodine was applied to the skin. For carotid catheterization, the left carotid artery was exposed via a small ventral cervical incision. The exposed area was flushed with a 2% lidocaine HCl solution to relax the vessel. The catheter, filled with 0.9% saline, was introduced approximately 2.4 cm into the artery so that its tip resided in the aortic arch. The distal end of the catheter was exteriorized at the nape of the neck, filled with heparin (1000 units/ml) and heat sealed. […]
The rats were weighed, orally sham-dosed (dosing needle introduced, but no fluid expelled), and transvesical saline infusion (.18 ml/min) was begun and continued throughout the experiment. Variations in blood pressure, heart rate, intravesical pressure and urine output were recorded on either a Grass Polygraph or a Gould TA4000 recording system. […] At this point, a basal level of each experimental parameter was recorded and the rats were administered by oral gavage the appropriate dose of compound (in a 75% PEG 400 - saline vehicle) in concentrations such that the volume was 1 ml/kg body weight. […]

[3] = chemical stability (no method given); type: physicochemical; conditions: in words; compared with corresponding compounds wherein R^2 is methyl
cardiovascular system = conditions: Vitolinya et al, 1981; cited from earlier work
intestinal smooth muscle = conditions: Vitolinya et al, 1981; cited from earlier work

## CC1(C)Oc2ccc(C#N)cc2C(N2CCCC2=O)C1O (centres unmarked) [cromakalim]
Urinary incontinence
  efficacy in treatment of urinary incontinence: effective
[1]; relaxant activity in the first test
  IC50: 0.6 to 0.9 µM
[2]; 80 mM KCl, at concentrations as high as 30 µM
  relaxant activity: insignificant relaxant activity

## COC(=O)C1=C(C)NC(C)=C(C(=O)OC(C)C)C1c1cccc2nonc12 (centres unmarked) [isradipine]
[2]
  potency in the second test (80 mM KCl) compared with the first test (15 mM KCl): more potent in the second test

## CC1=CC(c2cccc([N+](=O)[O-])c2)C2=C(CCCC2=O)N1 (centres unmarked) [Example 1, 2-Methyl-4-(3-nitrophenyl)-4,6,7,8-tetrahydro-5(1H)-quinolone]
bladder
  activity: active

## COc1ccc(Cc2nccc3cc(OC)c(OC)cc23)cc1OC [papaverine]
[2]; 80 mM KCl, 300 µM
  effect on sustained tension after high KCl stimulation: totally abolished

## N#Cc1cccc(C2C=C(C(F)(F)F)NC3=C2C(=O)CCC3)c1 (centres unmarked) [Example 39, 2-Trifluoromethyl-4-(3-cyanophenyl)-4,6,7,8-tetrahydro-5(1H)-quinolone]
[3]
  chemical stability: superior
[1]
  potency: surprisingly good potency in vitro

## CC1=CC(c2ccc(C(F)(F)F)cc2)C2=C(CCCC2=O)N1 (centres unmarked) [Example 9, 2-Methyl-4-(4-trifluoromethylphenyl)-4,6,7,8-tetrahydro-5(1H)-quinolone]
[1]; concentration causing 50% decrease in in vitro contraction of bladder tissue
  IC50: 8.11 µM

## COc1ccc(CCN(C)CCCC(C#N)(c2ccc(OC)c(OC)c2)C(C)C)cc1OC (centres unmarked) [verapamil]
[2]
  potency in the second test (80 mM KCl) compared with the first test (15 mM KCl): more potent in the second test

## O=C1CCCC2=C1C(c1cccc([N+](=O)[O-])c1)C=C(C(F)(F)F)N2 (centres unmarked) [Example 15, 2-Trifluoromethyl-4-(3-nitrophenyl)-4,6,7,8-tetrahydro-5(1H)quinolone]
[3]
  chemical stability: superior
[1]
  potency: surprisingly good potency in vitro

## CC1=C(C#N)C(c2ccccc2)C2=C(CC(C)(C)CC2=O)N1 (centres unmarked) [3-Cyano-4-phenyl-2,7,7-trimethyl-4,6,7,8-tetrahydro-5(1H)-quinolone]
Cardiovascular system
  hypotensive properties: hypotensive properties
Intestinal smooth muscle
  blocking of spasmogenic effect of acetylcholine and barium chloride: capable of blocking the spasmogenic effect
